Test results published in patent publication EP1764363A2, “Substituted acetophenonederivatives” (Riemser Arzneimittel AG, priority 2005, dated 2007).
≈ marks a conversion by molar mass, not a printed value.

What was measured:
Colo205 [1] = assay: Chemosensitivity test (modified MTT test EZ4U); settings: for Zellwachstum in % der Mediumkontrolle: 4 days
Procedure: (§1) Die Verbindungen wurden in Dimethylsulfoxid (DMSO) als konzentrierte Stammlösungen (100-400fach) gelöst und für Proliferationstests in Zellkulturmedium verdünnt.
(§2) Die Zellen wurden auf Verunreinigung durch Mycoplasmen untersucht. Das Medium wurde mit 10% hitzeinaktiviertem foetalem Kälberserum (Seromed) and 4 mM Glutamin ergänzt. Die Zellen wurden durch Trypsinierung subkultiviert (0.03% Trypsin enthaltend 0.02% EDTA, dreimal pro Woche). Die Trypsinierung wurde durch Verwendung vom komplettem Zellkulturmedium gestoppt. Die Zellzahl wurde unter Verwendung eines TOA Sysmex Microzellzählers (TOA, Tokyo, Japan) bestimmt.
(§3) 10^4 Zellen/well wurden in Mikrotiterplatten mit 96 Vertiefungen (100 µl Medium) verteilt und die zu testenden Verbindungen wurden in einem weiteren Volumen von 100 µl hinzugegeben. Alle Verbindungen wurden entweder in 3 fixen Konzentrationen eingesetzt (für Tabellen 1-3) oder in 10 Stufen verdünnt unter Verwendung von Zweifachverdünnungsschritten zur Bestimmung der IC50-Werte (dreifache Ansätze, in den meisten Fällen vierfache Ansätze). Die Platten wurden, mit der Ausnahme der Tests zur Untersuchung des Zusammenhangs von Applikationsdauer und Zellreaktion, 4 Tage lang unter Zellkulturbedingungen inkubiert und die Zellviabilität wurde unter Verwendung eines modifizierten MTT Tests bestimmt (Formazan-Farbstoffbildung aus Tetrazoliumsalzen wie MTT, XTT, WST-1 und anderen durch das mitochondriale Reduktionsystem Succinattetrazolium Reductase EC 1.3.99.1.; EZ4U nichtradioaktiver Zellproliferations- und Cytotoxizitätstest, Biomedica, Wien, Österreich; Testmanual unter: www.bmgrp.com). Hierbei wurde die mitochondriale Aktivität und dadurch die Zellviabilität/Zellzahl bestimmt. Kurz gesagt wurde das gelieferte Substrat in einer Aktivatorlösung gelöst und 20 µl der Mischung wurden für 2 Stunden pro Vertiefung hinzugegeben (Gesamtvolumen 200 µl). Die optische Dichte wurde bei 450 nm unter Verwendung einer leeren Vertiefung als Referenz in einem Mikroplattenlesegerät (Eurogenetics, Brüssel, Belgien) bestimmt. Für jede Zell-Line wurden Vertiefungen verwendet um das MTT-Signal der Mediumkontrollen ohne Testsubstanzen zu bestimmen. Die Proliferation in den Test-Vertiefungen wurde in Bezug auf diese Kontrollwerte (100%) errechnet. Die Testergebnisse wurden zwischen 0,3 und 1,5 optischer Dichte für langsam bzw. schnellproliferierende Zellen erfasst. Diese Dosis-Wirkungs-Beziehungen wurden verwendet um die IC50 (Konzentration bei der das Wachstum um 50% gehemmt wird) unter Verwendung von PRISM Scientific Software (GraphPad Inc., San Diego, CA) zu berechnen.

T47D [2] = assay: Chemosensitivity test (modified MTT test EZ4U); settings: for Zellwachstum in % der Mediumkontrolle: 4 days
Procedure: as §1, §2, §3

MIAPaCa2 = assay: Chemosensitivity test (modified MTT test EZ4U); settings: for IC50: Homo sapiens, MIA PaCa-2, 96 h, read-out: IC50-Werte; for Zellwachstum in % der Mediumkontrolle: 4 days
Procedure: as §1, §2, §3

WI38 = assay: Chemosensitivity test (modified MTT test EZ4U); settings: for IC50: Homo sapiens, WI-38, 96 h, read-out: IC50-Werte; for Zellwachstum in % der Mediumkontrolle: 4 days
Procedure: as §1, §2, §3

U87MG = assay: Chemosensitivity test (modified MTT test EZ4U); settings: Homo sapiens, U-87 MG, 96 h, read-out: IC50-Werte
From the text: as §1
(§4) Mit Ausnahme von SIM, KAL Ewingsarkom (in Wien etabliert) und LAN Neuroblastom (University of Los Angeles) wurden die Zell-Linien von der American Type Culture Collection (ATCC, Rockville, MD) bezogen und zum Erhalt von konfluenten Monolayerkulturen in RPMI-1640 Bikarbonatmedium (Seromed, Berlin, Deutschland) in einem Zellkulturschrank (5% CO2, 37°C) kultiviert. Mit der Ausnahme der murinen NlH3T3 Fibroblasten sind alle verwendeten Zell-Linien humanen Ursprungs. Die Zellen wurden auf Verunreinigung durch Mycoplasmen untersucht. Das Medium wurde mit 10% hitzeinaktiviertem foetalem Kälberserum (Seromed) and 4 mM Glutamin ergänzt. Die Zellen wurden durch Trypsinierung subkultiviert (0.03% Trypsin enthaltend 0.02% EDTA, dreimal pro Woche). Die Trypsinierung wurde durch Verwendung vom komplettem Zellkulturmedium gestoppt. Die Zellzahl wurde unter Verwendung eines TOA Sysmex Microzellzählers (TOA, Tokyo, Japan) bestimmt.
(§5) 10^4 Zellen/well wurden in Mikrotiterplatten mit 96 Vertiefungen (100 µl Medium) verteilt und die zu testenden Verbindungen wurden in einem weiteren Volumen von 100 µl hinzugegeben. […]

CRO2B = assay: Chemosensitivity test (modified MTT test EZ4U); settings: Homo sapiens, 96 h, read-out: IC50-Werte
Procedure: as §1, §2, §3

SIM = assay: Chemosensitivity test (modified MTT test EZ4U); settings: Homo sapiens, 96 h, read-out: IC50-Werte
From the text: as §1, §4, §5

KAL = assay: Chemosensitivity test (modified MTT test EZ4U); settings: Homo sapiens, 96 h, read-out: IC50-Werte
From the text: as §1, §4, §5

EW-7 = assay: Chemosensitivity test (modified MTT test EZ4U); settings: Homo sapiens, 96 h, read-out: IC50-Werte
From the text: as §1, §4, §5

SKOV3 = assay: Chemosensitivity test (modified MTT test EZ4U); settings: Homo sapiens, SK-OV-3, 96 h, read-out: IC50-Werte
Procedure: as §1, §2
(§6) 10^4 Zellen/well wurden in Mikrotiterplatten mit 96 Vertiefungen (100 µl Medium) verteilt und die zu testenden Verbindungen wurden in einem weiteren Volumen von 100 µl hinzugegeben. Alle Verbindungen wurden entweder in 3 fixen Konzentrationen eingesetzt (für Tabellen 1-3) oder in 10 Stufen verdünnt unter Verwendung von Zweifachverdünnungsschritten zur Bestimmung der IC50-Werte (dreifache Ansätze, in den meisten Fällen vierfache Ansätze). […]

SW620 = assay: Chemosensitivity test (modified MTT test EZ4U); settings: Homo sapiens, SW-620, 96 h, read-out: IC50-Werte
Procedure: as §1, §2, §3

CaCo-2 = assay: Chemosensitivity test (modified MTT test EZ4U); settings: Homo sapiens, Caco-2, 96 h, read-out: IC50-Werte
Procedure: as §1, §2, §3

J82 = assay: Chemosensitivity test (modified MTT test EZ4U); settings: Homo sapiens, J82, 96 h, read-out: IC50-Werte
Procedure: as §1, §2, §6

LAN1 = assay: Chemosensitivity test (modified MTT test EZ4U); settings: Homo sapiens, LAN1, 96 h, read-out: IC50-Werte
Procedure: as §1, §2, §6

LNCaP = assay: Chemosensitivity test (modified MTT test EZ4U); settings: Homo sapiens, 96 h, read-out: IC50-Werte
From the text: as §1, §4, §5

BT20 [3] = assay: Cell count determination in a proliferation test; settings: Homo sapiens, BT-20, read-out: Inhibition des Zellenwachstums (in %)
From the text: as §1
(§7) Mit Ausnahme von SIM, KAL Ewingsarkom (in Wien etabliert) und LAN Neuroblastom (University of Los Angeles) wurden die Zell-Linien von der American Type Culture Collection (ATCC, Rockville, MD) bezogen und zum Erhalt von konfluenten Monolayerkulturen in RPMI-1640 Bikarbonatmedium (Seromed, Berlin, Deutschland) in einem Zellkulturschrank (5% CO2, 37°C) kultiviert. […] Die Zellen wurden auf Verunreinigung durch Mycoplasmen untersucht. Das Medium wurde mit 10% hitzeinaktiviertem foetalem Kälberserum (Seromed) and 4 mM Glutamin ergänzt. Die Zellen wurden durch Trypsinierung subkultiviert (0.03% Trypsin enthaltend 0.02% EDTA, dreimal pro Woche). Die Trypsinierung wurde durch Verwendung vom komplettem Zellkulturmedium gestoppt. Die Zellzahl wurde unter Verwendung eines TOA Sysmex Microzellzählers (TOA, Tokyo, Japan) bestimmt.
(§8) Die Zellen wurden in Makroplatten mit 6 Vertiefungen (Greiner, Kremsmünster, Österreich) in einer anfänglichen Zelldichte von 200 000 Zellen/Vertiefung in 4 ml Medium unter Zellkulturbedingungen in Anwesenheit oder Abwesenheit der Testverbindungen (doppelte Ansätze) kultiviert. […]

T47D [4] = assay: Cell count determination in a proliferation test; settings: Homo sapiens, read-out: Inhibition des Zellenwachstums (in %)
From the text: as §1, §7, §8

Colo205 [5] = assay: Cell count determination in a proliferation test; settings: Homo sapiens, COLO 205, read-out: Inhibition des Zellenwachstums (in %)
From the text: as §1, §7, §8

[6] = Radical scavenger screening with DPPH radicals (DPPH test); settings: Konzentrationen 500 und 1000µg/ml
From the text: […] die 6 Verbindungen HMF2, HMF-3, CH-1, L5, Q20 und […]. Die […] durch den DPPH-Test ermittelt, wobei sich die UV/VIS-Absorption des freien stabilen […] (Diphenyl-β-picrylhydrazin) in Abhängigkeit vom Zustand von […]. Die Auswertung erfolgt qualitativ (dünnschichtchromatographisch) und quantitativ (photometrisch) mit Ascorbinsäure […] Molyneux P. (2004) The use of the stabel free radical diphenylpicrylhydrazyl (DPPH) for estimating antioxidant activity. Songklanakarin J Sci Technol. 26(2): 211-219).

Bacillus subitilis = assay: Minimal inhibitory concentration (MHK), microtitre plate, TTC staining; assay type: cell-based; settings: 48h, 36°C
Micrococcus luteus = assay: as above; assay type: cell-based; settings: 48h, 36°C
Rhodococcus equi = assay: as above; assay type: cell-based; settings: 48h, 36°C
S. falcium = assay: as above; assay type: cell-based; settings: 48h, 36°C
Salmonella sp = assay: as above; assay type: cell-based; settings: 48h, 36°C
From the text: Das Inokulum für die Tests wurde durch Verdünnung der Mikroorganismen in wässriger 0,85% NaCI-Lösung hergestellt, die Verdünnung auf die Stufe 0,5 nach McFarland eingestellt und die Konzentration spektrometrisch bei einer Wellenlänge von 580nm überprüft. Die Zellsuspensionen wurden zur Verwendung in den Tests auf 10^4 UFC/ml verdünnt. Die MHK-Tests erfolgten (Vorschrift nach J. N. P. Eloff, Planta Medica, Vol. 64, 1998, p 711-713) in Mikrotiterplatten mit 96 Vertiefungen. Serienverdünnungen der Konzentrationen lagen im Bereich 1,00 - 0,0015 mg/mL. Als Kontrollsubstanzen dienten Chloramphenicol bzw. Nistatin (Merck) in einer Konzentration von 0,062 - 0,005 mg/ml bzw. 0,0125 - 0,001 mg/ml. Das Inokulum (100 µl) wurde in alle Vertiefungen gegeben und die Platten für 48h bei 36°C inkubiert. Die antimikrobielle Aktivität wurde durch Zugabe von 20 µl einer 0,5% igen wässrigen Lösung von TTC (Tetrazoliumchlorid, Merck) pro Vertiefung detektiert. Die minimale Hemmkonzentration (MHK) wird als die niedrigste Konzentration der Verbindung definiert die das sichtbare Wachstum hemmt (durch TTC-Färbung indiziert).

Escherichia coli = assay: as above; assay type: cell-based; settings: 48h, 36°C
S. aureus = assay: as above; assay type: cell-based; settings: 48h, 36°C
E. hirae = assay: as above; assay type: cell-based; settings: 48h, 36°C
S. epidermides = assay: as above; assay type: cell-based; settings: 48h, 36°C
Candida albicans = assay: as above; assay type: cell-based; settings: 48h, 36°C
[7] = test system: Staphylococcus aureus (Stamm ATCC 6538); assay: Mouse ear test (in vivo), antiseptic effect; design: key to Keimwachstum (grade): +++: totale Verhinderung des Keimwachstums; ++: Keimwachstum deutlich reduziert aber nicht völlig unterdrückt; settings: mouse ears infected with S. aureus ATCC 6538; germ count vs infected untreated animal after 18 and 24 h
HT29 = assay: Chemosensitivity test (modified MTT test EZ4U); settings: Homo sapiens, HT-29, 96 h, read-out: IC50-Werte
From the text: as §1, §4, §5

MDA-MB435 = assay: Chemosensitivity test (modified MTT test EZ4U); settings: Homo sapiens, MDA-MB-435, 96 h, read-out: IC50-Werte
From the text: as §1, §4, §5

BT20 [8] = assay: Chemosensitivity test (modified MTT test EZ4U); settings: Homo sapiens, BT-20, 96 h, read-out: IC50-Werte
From the text: as §1, §4, §5

DU 145 = assay: Chemosensitivity test (modified MTT test EZ4U); settings: Homo sapiens, DU-145, 96 h, read-out: IC50-Werte
From the text: as §1, §4, §5

BxPC3 = assay: Chemosensitivity test (modified MTT test EZ4U); settings: Homo sapiens, BXPC-3, 96 h, read-out: IC50-Werte
From the text: as §1, §4, §5

## O=C(/C=C/c1ccc(CO)o1)c1ccccc1O [HMF-3, 3-(5-Hydroxymethylfuran-2-yl)-1-(2-hydroxyphenyl)-propenon]
Colo205 [1]; Colo205 (Colon), 5 µg/ml
  Zellwachstum in % der Mediumkontrolle: 68%
Colo205 [1]; Colo205 (Colon), 10 µg/ml
  Zellwachstum in % der Mediumkontrolle: 82,60%
Colo205 [1]; Colo205 (Colon), 2,5 µg/ml
  Zellwachstum in % der Mediumkontrolle: 85,90%
T47D [2]; T47D (Mamakarzinom), 5 µg/ml
  Zellwachstum in % der Mediumkontrolle: 50,00%
T47D [2]; T47D (Mamakarzinom), 10 µg/ml
  Zellwachstum in % der Mediumkontrolle: 50,20%
T47D [2]; T47D (Mamakarzinom), 2,5 µg/ml
  Zellwachstum in % der Mediumkontrolle: 39,10%
MIAPaCa2
  IC50: > 200 mg/L
MIAPaCa2; MIAPaCa2 (Pankreas), 5 µg/ml
  Zellwachstum in % der Mediumkontrolle: 81,80%
MIAPaCa2; MIAPaCa2 (Pankreas), 10 µg/ml
  Zellwachstum in % der Mediumkontrolle: 50,60%
MIAPaCa2; MIAPaCa2 (Pankreas), 2,5 µg/ml
  Zellwachstum in % der Mediumkontrolle: 84,10%
WI38
  IC50: 20 mg/L (≈ 81.9 µM)
WI38; WI38 (Fibroblasten), 5 µg/ml
  Zellwachstum in % der Mediumkontrolle: 64,70%
WI38; WI38 (Fibroblasten), 10 µg/ml
  Zellwachstum in % der Mediumkontrolle: 81,50%
WI38; WI38 (Fibroblasten), 2,5 µg/ml
  Zellwachstum in % der Mediumkontrolle: 92%
U87MG
  IC50: > 200 mg/L
CRO2B
  IC50: > 200 mg/L
SIM
  IC50: > 200 mg/L
KAL
  IC50: > 200 mg/L
EW-7
  IC50: 5.25 mg/L (≈ 21.5 µM)
SKOV3
  IC50: > 200 mg/L
SW620
  IC50: 9.7 mg/L (≈ 39.7 µM)
CaCo-2
  IC50: > 200 mg/L
J82
  IC50: > 200 mg/L
LAN1
  IC50: 20 mg/L (≈ 81.9 µM)
LNCaP
  IC50: 9.5 mg/L (≈ 38.9 µM)
BT20 [3]
  inhibition at 50 µg/mL: 15.7%
T47D [4]
  inhibition at 50 µg/mL: 57%
Colo205 [5]
  inhibition at 50 µg/mL: 3.5%

## COc1cc(/C=C/C(=O)c2ccccc2O)ccc1O [Q20, 3-(4-Hydroxy-3-methoxyphenyl)-1-(2-hydroxyphenyl)-propenon]
[6]
  Radikalfänger-Effekt: 98%
Bacillus subitilis
  MHK-Werte: 0,5 mg/ml
Micrococcus luteus
  MHK-Werte: 1,0 mg/ml
Rhodococcus equi
  MHK-Werte: >1,0 mg/ml
S. falcium
  MHK-Werte: 0,3 mg/ml
Salmonella sp
  MHK-Werte: >1,0 mg/ml
Escherichia coli
  MHK-Werte: >1,0 mg/ml
S. aureus
  MHK-Werte: 1,0 mg/ml
E. hirae
  MHK-Werte: >1,0 mg/ml
S. epidermides
  MHK-Werte: 0,5 mg/ml
Candida albicans
  MHK-Werte: 0,3 mg/ml
[7]
  Keimwachstum (grade): ++
  Keimwachstum reduziert auf: 30%
Colo205 [1]; Homo sapiens, COLO 205, 96 h, read-out: IC50-Werte
  IC50: 27 mg/L (≈ 99.9 µM)
T47D [2]; Homo sapiens, T47D, 96 h, read-out: IC50-Werte
  IC50: 25 mg/L (≈ 92.5 µM)
MIAPaCa2
  IC50: 18 mg/L (≈ 66.6 µM)
WI38
  IC50: 8.3 mg/L (≈ 30.7 µM)
CRO2B
  IC50: 12 mg/L (≈ 44.4 µM)
SW620
  IC50: 17 mg/L (≈ 62.9 µM)
CaCo-2
  IC50: 12 mg/L (≈ 44.4 µM)
HT29
  IC50: 16 mg/L (≈ 59.2 µM)
MDA-MB435
  IC50: 24 mg/L (≈ 88.8 µM)
BT20 [8]
  IC50: 33 mg/L (≈ 122 µM)
DU 145
  IC50: 16 mg/L (≈ 59.2 µM)
BxPC3
  IC50: 33 mg/L (≈ 122 µM)

## O=C(/C=C/c1ccc(CO)o1)c1ccc(Cl)cc1 [HMF-2, 1-(4-Chlorophenyl)-3-(5-hydroxymethylfuran-2-yl)propenon]
[7]
  Keimwachstum (grade): +++
Colo205 [1]; Colo205 (Colon), 5 µg/ml
  Zellwachstum in % der Mediumkontrolle: 78,6%
Colo205 [1]; Colo205 (Colon), 10 µg/ml
  Zellwachstum in % der Mediumkontrolle: 41,30%
Colo205 [1]; Colo205 (Colon), 2,5 µg/ml
  Zellwachstum in % der Mediumkontrolle: 84,80%
T47D [2]; T47D (Mamakarzinom), 5 µg/ml
  Zellwachstum in % der Mediumkontrolle: 25,60%
T47D [2]; T47D (Mamakarzinom), 10 µg/ml
  Zellwachstum in % der Mediumkontrolle: 4,90%
T47D [2]; T47D (Mamakarzinom), 2,5 µg/ml
  Zellwachstum in % der Mediumkontrolle: 28,10%
MIAPaCa2
  IC50: 10 mg/L (≈ 38.1 µM)
MIAPaCa2; MIAPaCa2 (Pankreas), 5 µg/ml
  Zellwachstum in % der Mediumkontrolle: 91,10%
MIAPaCa2; MIAPaCa2 (Pankreas), 10 µg/ml
  Zellwachstum in % der Mediumkontrolle: 74,60%
MIAPaCa2; MIAPaCa2 (Pankreas), 2,5 µg/ml
  Zellwachstum in % der Mediumkontrolle: 84,30%
WI38
  IC50: 4.9 mg/L (≈ 18.7 µM)
WI38; WI38 (Fibroblasten), 5 µg/ml
  Zellwachstum in % der Mediumkontrolle: 92,90%
WI38; WI38 (Fibroblasten), 10 µg/ml
  Zellwachstum in % der Mediumkontrolle: 10,60%
WI38; WI38 (Fibroblasten), 2,5 µg/ml
  Zellwachstum in % der Mediumkontrolle: 104,7%
U87MG
  IC50: > 200 mg/L
CRO2B
  IC50: 50 mg/L (≈ 190 µM)
SIM
  IC50: > 200 mg/L
KAL
  IC50: 45 mg/L (≈ 171 µM)
EW-7
  IC50: 0.3 mg/L (≈ 1.14 µM)
SKOV3
  IC50: 36 mg/L (≈ 137 µM)
SW620
  IC50: 0.85 mg/L (≈ 3.24 µM)
CaCo-2
  IC50: 17.5 mg/L (≈ 66.6 µM)
J82
  IC50: 47 mg/L (≈ 179 µM)
LAN1
  IC50: 4.25 mg/L (≈ 16.2 µM)
LNCaP
  IC50: 3.25 mg/L (≈ 12.4 µM)
BT20 [3]
  inhibition at 50 µg/mL: 74%
T47D [4]
  inhibition at 50 µg/mL: 75.6%
Colo205 [5]
  inhibition at 50 µg/mL: 35.6%
